Experimental findings from the Deep4Chem optical property database are described below.

The nature of the first data set: solvent given as SMILES. Particulars: in CO.
In turn, `CC1(C)C(/C=C/C2=C(c3ccc(C(=O)O)cc3)C(=C/C=C3/N(CCCCS(=O)(=O)[O-])c4ccc5ccccc5c4C3(C)C)/CCC2)=[N+](CCCCS(=O)(=O)[O-])c2ccc3ccccc3c21` showed an emission maximum of 811 nm.
The compound `CCCN1C(=O)C(=CC=CC=C2Oc3ccccc3N2CCCS(=O)(=O)[O-])C(=O)N(CCC)C1=S` displayed an emission maximum of 577 nm.
`COC(=O)COc1ccc(/C=C/C2=[N+]3C(=C(c4ccc(N5CCCCC5)cc4)c4c(C)cc(C)n4[B-]3(F)F)C(C)=C2)cc1` registered an emission maximum of 581 nm.
`Oc1ccc2ccccc2c1C1Nc2cccc3cccc(c23)N1` gave an emission maximum of 476 nm.
`CCN(CC)c1ccc2c(c1)OC1=C(/C=C/C3=[N+](C)c4ccc5ccccc5c4C3(C)C)CCCC1=C2c1ccccc1C(=O)O` registered an emission maximum of 753 nm.
Compound `O=[N+]([O-])c1ccc(/C=C/c2c[nH]c3ccccc23)cc1` had an emission maximum of 567 nm.

The data set is the same for the next values; noted with them: in CS(C)=O.
In turn, `CN(C)C(=O)c1ccc(-c2nc3ccc(N(C)C)cc3s2)cc1` showed an emission maximum of 534 nm.
Compound `COc1cc(OC)cc(C2=C3C(C)=C(I)C(/C=C/c4ccsc4)=[N+]3[B-](F)(F)n3c(/C=C/c4ccsc4)c(I)c(C)c32)c1` showed an emission maximum of 692 nm.
Compound `Oc1ccc2ccccc2c1C1Nc2cccc3cccc(c23)N1` gave an emission maximum of 528 nm.
On to `BrC1=CN2C[n+]3cc(Br)cc(Br)c3N=C2C(Br)=C1`, for which the emission maximum is listed as 494 nm.
`O=c1oc2ccccc2cc1-c1cc2ccccc2o1` displayed an emission maximum of 450 nm.

Still in this data set, the particulars now being: in Cc1ccccc1.
`O=Cc1ccc2nc(C#Cc3ccc(N(c4ccccc4)c4ccccc4)cc3)sc2c1` came in with an emission maximum of 473 nm.
Same read-out and setting: the same measure for `CC(C)(C)c1ccc2c(c1)B1c3cc(C(C)(C)C)ccc3Oc3cc(-n4c5ccccc5c5c6c(c7ccccc7n6-c6ccccc6)c6c(c7ccccc7n6-c6ccccc6)c54)cc(c31)O2`: 456 nm.
In turn, `CCCCn1c2c(-c3ccc(N(c4ccccc4)c4ccccc4)cc3)cc(C#N)cc2c2cc(C#N)cc(-c3ccc(N(c4ccccc4)c4ccccc4)cc3)c21` gave an emission maximum of 415 nm.
Turning to `CCCCC1(CCCC)c2cc(C#Cc3ccc4ccc5cccc6ccc3c4c56)ccc2-c2ccc(C#Cc3ccc4ccc5cccc6ccc3c4c56)cc21`, the emission maximum turned out to be 438 nm.
Turning to `COc1ccc(-c2c3ccc([nH]3)c3nc(c(-c4ccc([N+](=O)[O-])cc4)c4ccc([nH]4)c4ccc([nH]4)c(-c4ccc(OC)cc4)c4ccc2o4)C=C3)cc1`, the emission maximum was found to be 739 nm.
The same measure, in the same setting: the same measure for `Cc1ccc(-c2c3ccc([nH]3)c3nc(c(-c4ccc(C#N)cc4)c4ccc([nH]4)c4ccc([nH]4)c(-c4ccc(C)cc4)c4ccc2o4)C=C3)cc1`: 722 nm; for `Oc1ccc2ccccc2c1C1Nc2cccc3cccc(c23)N1`: 468 nm.
In the case of `CCn1c2ccccc2c2cc(-c3cc(-c4ccc5c(c4)c4ccccc4n5CC)nc(SC)n3)ccc21`, the emission maximum stood at 387 nm.
On the same count and under the same terms, the figure for `O=c1oc2ccccc2cc1-c1cc2ccccc2o1` is 431 nm.
Regarding `CCn1c2ccccc2c2c3nsnc3c3c4ccccc4n(CC)c3c21`, the emission maximum was 470 nm.

Staying with this data set, now noted: in ClC(Cl)Cl.
`CN(C)C(=O)c1ccc(-c2nc3ccc(N(C)C)cc3s2)cc1` gave an emission maximum of 472 nm.
Same read-out and setting: the same measure for `CCCN1C(=O)C(=CC=CC=C2Oc3ccccc3N2CCCS(=O)(=O)[O-])C(=O)N(CCC)C1=S`: 589 nm; for `O=C1c2ccc3c4c(-c5ccccc5)cc5c6c(ccc(c7c(-c8ccccc8)cc(c2c37)C(=O)N1C1CCCCC1)c64)C(=O)N(C1CCCCC1)C5=O`: 651 nm; for `CCCCC1(CCCC)c2cc(C#Cc3ccc4ccc5cccc6ccc3c4c56)ccc2-c2ccc(C#Cc3ccc4ccc5cccc6ccc3c4c56)cc21`: 439 nm.
Compound `CCN(CC)c1ccc2c(c1)OC1=C(/C=C/C3=[N+](C)c4ccc5ccccc5c4C3(C)C)CCCC1=C2c1ccccc1C(=O)O` registered an emission maximum of 761 nm.
`CCCN1c2ccccc2Sc2cc(/C=C\c3cc(=O)oc4cc(C)c(Cl)cc34)ccc21`: the emission maximum is on record as 648 nm.
The compound `O=C1NC(=O)c2ccc(N3CCCCC3)c3cccc1c23` yielded an emission maximum of 517 nm.

Still in this data set, the particulars now being: in ClC=C(Cl)Cl.
Compound `CCCCn1c2c(-c3ccc(N(c4ccccc4)c4ccccc4)cc3)cc(C#N)cc2c2cc(C#N)cc(-c3ccc(N(c4ccccc4)c4ccccc4)cc3)c21` gave an emission maximum of 424 nm.

Still in this data set, the particulars now being: in ClCCl.
For `COCCOCCOCCOCC(COCCOCCOCCOC)Oc1cc(/C=C/c2ccc(/C=C(\C#N)c3ccccc3)cc2)c(OC(COCCOCCOCCOC)COCCOCCOCCOC)cc1/C=C/c1ccc(/C=C(\C#N)c2ccccc2)cc1`, the emission maximum is recorded as 539 nm.
Compound `O=C1C2=C(O[B-](F)(F)[n+]3c2ccc2ccccc23)c2cccc3c(N4CCOCC4)ccc1c23` yielded an emission maximum of 588 nm.
Same read-out and setting: the same measure for `COc1ccc(O)c(-c2[nH]c(=O)n3c2-c2ccccc2C3=O)c1`: 481 nm.
`Cc1nc(-c2cc(F)ccc2O)n2c1CCCC2`: the emission maximum is recorded as 464 nm.
Turning to `CCOCCOCCOC(=O)/C=C/C1=CC2=C(c3c(C)cc(C)cc3C)c3cc(/C=C/C(=O)OCCOCCOCC)cn3[B-](F)(F)[N+]2=C1`, the emission maximum is recorded as 606 nm.
`COc1cc(OC)cc(C2=C3C(C)=C(I)C(/C=C/c4ccsc4)=[N+]3[B-](F)(F)n3c(/C=C/c4ccsc4)c(I)c(C)c32)c1` returned an emission maximum of 682 nm.
`Cc1ccc(C2=[N+]3C(=Nc4c5ccccc5c(-c5ccc(C)s5)n4[B-]3(F)F)c3ccccc32)s1` displayed an emission maximum of 841 nm.
In turn, `c1ccc(N(c2ccccc2)c2ccc(-c3ccc4c(c3)C3(c5cc(-c6ccc(N(c7ccccc7)c7ccccc7)cc6)ccc5O4)c4ccccc4-c4ccccc43)cc2)cc1` registered an emission maximum of 419 nm.
With `CCCCn1c2c(-c3ccc(N(c4ccccc4)c4ccccc4)cc3)cc(C#N)cc2c2cc(C#N)cc(-c3ccc(N(c4ccccc4)c4ccccc4)cc3)c21`, the emission maximum is given as 452 nm.
`CCCCC1(CCCC)c2cc(C#Cc3ccc4ccc5cccc6ccc3c4c56)ccc2-c2ccc(C#Cc3ccc4ccc5cccc6ccc3c4c56)cc21` returned an emission maximum of 439 nm.
Same read-out and setting: the same measure for `c1ccc2c(c1)-c1cc(-n3c4ccccc4c4ccccc43)ccc1C21c2ccccc2-n2c3ccccc3c3cccc1c32` (stereo not given): 372 nm; for `COc1ccc(/C=C/C2=[O+][B-](F)(F)OC(/C=C/c3ccc(OC)cc3)=C2c2ccc(OC)cc2)cc1`: 571 nm; for `c1ccc(N(c2ccccc2)c2ccc(-c3ccc4c(c3)C3(c5ccccc5Oc5ccccc53)c3cc(-c5ccc(N(c6ccccc6)c6ccccc6)cc5)ccc3-4)cc2)cc1`: 457 nm.
In turn, `FC(F)(F)c1ccc(-c2ccc(-c3cc(-c4ccccn4)nc(-c4ccccn4)c3)cc2)cc1` came in with an emission maximum of 359 nm.
Consider `CCn1c2ccccc2c2cc(-c3cc(-c4ccc5c(c4)c4ccccc4n5CC)nc(SC)n3)ccc21`, for which the emission maximum came out at 411 nm.
As for `O=C1c2ccccc2C2=Nc3ccc4ccccc4[n+]3[B-](F)(F)N12`, the emission maximum was found to be 444 nm.
As for `CCn1c2ccccc2c2c3nsnc3c3c4ccccc4n(CC)c3c21`, the emission maximum amounted to 497 nm.

The data set is the same for the next values; noted with them: in O.
The compound `CCCN1C(=O)C(=CC=CC=C2Oc3ccccc3N2CCCS(=O)(=O)[O-])C(=O)N(CCC)C1=S` returned an emission maximum of 573 nm.
In turn, `CC[n+]1c(-c2ccccc2)c2cc(-n3cccc3)ccc2c2ccc(N)cc21` had an emission maximum of 603 nm.
Take `O=[N+]([O-])c1ccc(/C=C/c2c[nH]c3ccccc23)cc1`: the emission maximum amounted to 552 nm.
`O=c1oc2ccccc2cc1-c1cc2ccccc2o1` gave an emission maximum of 475 nm.

The data set is the same for the next values; noted with them: in c1cc(-n2c3ccccc3c3ccccc32)cc(-n2c3ccccc3c3ccccc32)c1.
In turn, `c1ccc(N(c2ccccc2)c2ccc(-c3ccc4c(c3)C3(c5cc(-c6ccc(N(c7ccccc7)c7ccccc7)cc6)ccc5O4)c4ccccc4-c4ccccc43)cc2)cc1` yielded an emission maximum of 407 nm.
In turn, `c1ccc(N(c2ccccc2)c2ccc(-c3ccc4c(c3)C3(c5ccccc5Oc5ccccc53)c3cc(-c5ccc(N(c6ccccc6)c6ccccc6)cc5)ccc3-4)cc2)cc1` registered an emission maximum of 441 nm.

The data set is the same for the next values; noted with them: in c1ccccc1.
`CN(C)C(=O)c1ccc(-c2nc3ccc(N(C)C)cc3s2)cc1` had an emission maximum of 457 nm.
In turn, `COc1ccc(-c2c3ccc([nH]3)c3nc(c(-c4ccc([N+](=O)[O-])cc4)c4ccc([nH]4)c4ccc([nH]4)c(-c4ccc(OC)cc4)c4ccc2o4)C=C3)cc1` gave an emission maximum of 739 nm.
In turn, `Cc1ccc(-c2c3ccc([nH]3)c3nc(c(-c4ccc(C#N)cc4)c4ccc([nH]4)c4ccc([nH]4)c(-c4ccc(C)cc4)c4ccc2o4)C=C3)cc1` yielded an emission maximum of 722 nm.
